Substitutions are numbered along the chain they refer to. Like-named read-outs stand apart in the source and are kept apart here. Where a SMILES comes first, the peptide text is derived from it. Bridges are numbered along the chain shown (N, C = ends).
Columns and labels:
Assay in all cases: IP1 accumulation
Format in all cases: cell-based
hCTR I371A = target: T1, hCTR I371A (Homo sapiens, UniProt P30988, I371A); details: mean ± S.E.M.; for Emax: IP1 maximal response, SEM
T1 construct: c-Myc (N); expressed in transfected cells
T1 sequence (P30988 25-474 I371A): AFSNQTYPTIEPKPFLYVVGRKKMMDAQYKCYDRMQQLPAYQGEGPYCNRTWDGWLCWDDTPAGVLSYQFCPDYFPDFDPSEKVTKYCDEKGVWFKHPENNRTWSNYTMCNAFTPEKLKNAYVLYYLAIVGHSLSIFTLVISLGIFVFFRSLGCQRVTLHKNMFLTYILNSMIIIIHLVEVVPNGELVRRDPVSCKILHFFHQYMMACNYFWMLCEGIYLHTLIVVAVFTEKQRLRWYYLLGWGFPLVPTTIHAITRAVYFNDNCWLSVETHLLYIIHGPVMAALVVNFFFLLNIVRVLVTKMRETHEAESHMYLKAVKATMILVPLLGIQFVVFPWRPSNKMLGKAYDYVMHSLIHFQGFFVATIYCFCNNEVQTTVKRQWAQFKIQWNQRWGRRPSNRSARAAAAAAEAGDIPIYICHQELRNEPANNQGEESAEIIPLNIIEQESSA
Method: (§1) Cells (2.5 × 10^4 cells/well) were plated into 96 well trays and cultured overnight. Cells were stimulated with increasing concentration of ligands for 60 min in the presence of LiCl. Samples were lysed and endogenous IP1 was measured using an IP-One HTRF® assay kit (CisBio) as specified by the manufacturer. Data were normalized to the maximal response elicited by 100 μM of ATP.
(§2) Data were corrected for radioligand occupancy using the Cheng-Prusoff equation in Prism; as such data are reported as pKi. Emax and EC50 were estimated from concentration-response curves using with a 3-parameter logistic equation in Prism (v7). These values are a composite of functional affinity, efficacy and stimulus response coupling. […] Significance was accepted at P < 0.05.

hCTR K366A = target: T2, hCTR K366A (Homo sapiens, UniProt P30988, K366A); details: mean ± S.E.M.; for Emax: IP1 maximal response, SEM
T2 construct: c-Myc (N); expressed in transfected cells
T2 sequence (P30988 25-474 K366A): T1 sequence (P30988 25-474 I371A) with K342A, A347I
Method: as §1, §2

hCTR L297A = target: T3, hCTR L297A (Homo sapiens, UniProt P30988, L297A); details: mean ± S.E.M.; for Emax: IP1 maximal response, SEM
T3 construct: c-Myc (N); expressed in transfected cells
T3 sequence (P30988 25-474 L297A): T1 sequence (P30988 25-474 I371A) with L273A, A347I
Method: as §1, §2

hCTR L368A = target: T4, hCTR L368A (Homo sapiens, UniProt P30988, L368A); details: mean ± S.E.M.; for Emax: IP1 maximal response, SEM
T4 construct: c-Myc (N); expressed in transfected cells
T4 sequence (P30988 25-474 L368A): T1 sequence (P30988 25-474 I371A) with L344A, A347I
Method: as §1, §2

hCTR WT = target: T5, hCTR WT (Homo sapiens, UniProt P30988); details: for Emax: read-out: Emax (% WT), SEM
T5 construct: expressed in transfected cells
T5 sequence (P30988 25-474): T1 sequence (P30988 25-474 I371A) with A347I
Method: as §1, §2

[1] = IP1, CV1-FlpIn cells, 60 min, LiCl

Row | EC50 (hCTR I371A; [1]) [nM] | EC50 (hCTR K366A; [1]) [nM] | EC50 (hCTR L297A; [1]) [nM] | EC50 (hCTR L368A; [1]) [nM] | EC50 (hCTR WT; WT, IP1, CV1-FlpIn cells, 60 min, LiCl, mean ± S.E.M.) [nM] | Emax (hCTR WT; WT, IP1 maximal response, mean ± S.E.M.) [%] | SMILES | Emax (hCTR I371A) [%] | Emax (hCTR K366A) [%] | Emax (hCTR L297A) [%] | Emax (hCTR L368A) [%] | Emax (hCTR WT) [%]
1 | – | – | – | – | – | – | CC[C@H](C)[C@H](NC(=O)[C@H](C)NC(=O)[C@@H](NC(=O)[C@H](CCC(N)=O)NC(=O)[C@@H]1CCCN1C(=O)[C@H](Cc1ccccc1)NC(=O)[C@@H](NC(=O)[C@H](Cc1c[nH]cn1)NC(=O)[C@H](Cc1ccccc1)NC(=O)[C@H](CCCCN)NC(=O)[C@H](CC(N)=O)NC(=O)[C@H](Cc1ccccc1)NC(=O)[C@H](CC(=O)O)NC(=O)[C@H](CCC(N)=O)NC(=O)[C@@H](NC(=O)[C@H](Cc1ccc(O)cc1)NC(=O)[C@@H](NC(=O)CNC(=O)[C@H](CC(C)C)NC(=O)[C@H](CCSC)NC(=O)[C@@H]1CSSC[C@H](N)C(=O)NCC(=O)N[C@@H](CC(N)=O)C(=O)N[C@@H](CC(C)C)C(=O)N[C@@H](CO)C(=O)N[C@@H]([C@@H](C)O)C(=O)N1)[C@@H](C)O)[C@@H](C)O)[C@@H](C)O)[C@@H](C)O)C(=O)NCC(=O)N[C@H](C(=O)NCC(=O)N[C@@H](C)C(=O)N1CCC[C@H]1C(N)=O)C(C)C [hCT] | 42 ± 3 | 121 ± 6 | 52 ± 5 | 115 ± 7 | 100 ± 3
2 | 4.17 | 1.48 | 2 | 10 | 1.38 | 100 ± 3 | CSCC[C@H](NC(=O)CNC(=O)[C@H](CO)NC(=O)[C@H](Cc1ccccc1)NC(=O)[C@H](CCCNC(=N)N)NC(=O)[C@H](Cc1c[nH]cn1)NC(=O)[C@H](Cc1ccccc1)NC(=O)[C@H](CC(N)=O)NC(=O)[C@H](CC(N)=O)NC(=O)[C@H](CC(C)C)NC(=O)[C@H](CC(N)=O)NC(=O)[C@H](CCCNC(=N)N)NC(=O)[C@H](Cc1c[nH]c2ccccc12)NC(=O)[C@H](Cc1ccc(O)cc1)NC(=O)[C@H](C)NC(=O)[C@H](CO)NC(=O)[C@H](CC(C)C)NC(=O)[C@@H](NC(=O)[C@@H]1CSSC[C@H](N)C(=O)N[C@@H](CO)C(=O)N[C@@H](CC(N)=O)C(=O)N[C@@H](CC(C)C)C(=O)N[C@@H](CO)C(=O)N[C@@H]([C@@H](C)O)C(=O)N1)C(C)C)C(=O)NCC(=O)N[C@@H](Cc1ccccc1)C(=O)NCC(=O)N1CCC[C@H]1C(=O)N[C@@H](CCC(=O)O)C(=O)N[C@H](C(=O)N1CCC[C@H]1C(N)=O)[C@@H](C)O [pCT] (H-CSNLSTCVLSAYWRNLNNFHRFSGMGFGPETP-NH2; disulfide 1-7) | 61 ± 6 | 91 ± 6 | 68 ± 5 | 94 ± 9 | –
3 | – | – | – | – | – | – | CC(C)C[C@H](NC(=O)[C@H](CCCCN)NC(=O)CNC(=O)[C@H](CC(C)C)NC(=O)[C@@H](NC(=O)[C@@H]1CSSC[C@H](N)C(=O)N[C@@H](CO)C(=O)N[C@@H](CC(N)=O)C(=O)N[C@@H](CC(C)C)C(=O)N[C@@H](CO)C(=O)N[C@@H]([C@@H](C)O)C(=O)N1)C(C)C)C(=O)N[C@@H](CO)C(=O)N[C@@H](CCC(N)=O)C(=O)N[C@@H](CCC(=O)O)C(=O)N[C@@H](CC(C)C)C(=O)N[C@@H](Cc1c[nH]cn1)C(=O)N[C@@H](CCCCN)C(=O)N[C@@H](CC(C)C)C(=O)N[C@@H](CCC(N)=O)C(=O)N[C@H](C(=O)N[C@@H](Cc1ccc(O)cc1)C(=O)N1CCC[C@H]1C(=O)N[C@@H](CCCNC(=N)N)C(=O)N[C@H](C(=O)N[C@@H](CC(N)=O)C(=O)N[C@H](C(=O)NCC(=O)N[C@@H](CO)C(=O)NCC(=O)N[C@H](C(=O)N1CCC[C@H]1C(N)=O)[C@@H](C)O)[C@@H](C)O)[C@@H](C)O)[C@@H](C)O [sCT] | 31 ± 14 | 93 ± 5 | 69 ± 7 | 97 ± 4 | 100 ± 3
